The text below walks through data of patent US10259824B2, “Complement C3d-binding compounds” (The Regents of the University of California, priority 2015, dated 2019).

The nature of series [1]: Absorption and fluorescence spectroscopy / fluorescence quantum yield. It counts as physicochemical. The conditions noted are these: for Emission Peak / Excitation Peak / Quantum Yield: acetonitrile. The method, then: Absorption and fluorescence spectroscopy. Stock solutions of C3d-binding compounds (in DMSO) were diluted in spectroscopic grade acetonitrile (Fisher Scientific). The concentration of each sample was adjusted such that the absorption at the excitation wavelength was below 0.2, after correcting with blank acetonitrile solutions containing the same concentration of DMSO as the measured samples. The UV/visible absorption spectra (260-700 nm) were recorded on a JASCO V-670 spectrophotometer (Tokyo, Japan), using quartz cuvettes (1.0 cm path length, 3.0 ml total volume). The emission spectra were collected with a FluoroLog-3 spectrofluorometer (Horiba-Jobin-Yvon, Edison, N.J., USA). All samples were purged with argon prior to the measurements and all measurements were performed at room temperature.
Fluorescence quantum yield measurements. Fluorescence quantum yield values for the small molecules were calculated using one or more standard quantum yield fluorophores. Values were calculated according to Eq. 1.
where R and S subscripts denote reference compound and sample, respectively, Φfl is quantum yield, In is the total integrated fluorescence spectrum intensity obtained from integration of the emission spectra, An is sample absorbance at the excitation wavelength, and nn is the refractive index of the solvent. Reference compounds used for calculation included naphthalene (ΦR=0.23 for EtOH), anthracene (ΦR=0.27 for EtOH), and coumarin 1 (ΦR=0.73 for EtOH). Standard molecule quantum yield measurements were performed in acetonitrile, and solvent-dependent measurements were performed in spectroscopic grade methanol, ethanol, 1-propanol, 1-butanol, ethylene glycol, glycerol, and phosphate buffered saline.
To test the fluorescence dependence on the media viscosity, a protic media was used, i.e., an aqueous buffer and six alcohols with widely varying viscosities.

Series [2] deals with T1, C3d (Homo sapiens, UniProt P01024).
T1 construct: Further cleavage events yield C3d (the terminal cleavage product of C3); purchased Complement Technology, Inc
Kind of series: Microscale thermophoresis direct binding. The conditions noted are these: 10 nM NT647-labeled C3d, MST buffer with 5% DMSO. The method, then: Microscale thermophoresis. Direct binding of molecules was assayed using a Monolith NT.115 (NanoTemper Technologies GmbH). Purified C3d (Complement Technology, Inc.) was labeled with NT647 dye using the kit from NanoTemper Technologies, and dissolved to 10 nM in MST buffer (50 mM Tris-HCl, 150 mM NaCl, 10 mM MgCl2, 0.05% Tween 20) containing 5% DMSO. A dilution series of each molecule was prepared in MST buffer containing 5% DMSO, and preincubated with 10 nM NT647-labeled C3d for 10 minutes at room temperature in the dark. Samples were loaded into hydrophilic capillary tubes, and measurements were obtained. For each molecule, reported KD values and binding curves represent results from three independent experiments.
Experimental evaluation of C3d binding. In order to validate the hits from vHTS, binding of 49 selected compounds were measured using microscale thermophoresis. All molecules were tested in a concentration-dependent manner; starting at a concentration of 200 μM (most molecules were poorly soluble in aqueous solution above this concentration). Ten molecules were identified that bound to C3d, with binding affinities (KD) ranging between 25-500 μM. The molecular structures and binding curves for top molecules are shown in FIG. 6, and other binding compounds are shown in FIG. 9.
Microscale Thermophoresis: Direct binding of a small number of selected molecules was tested using microscale thermophoresis. […] We used Efb, a protein secreted from Staphylococcus aureus that binds to C3d, as a positive control for binding (KD=3 nM) (see FIG. 11).
(In general: Microscale thermophoresis detects binding through changes in fluorescence in a small temperature gradient.)

Another series concerns the target T2, C3d-CR2 interaction (Homo sapiens, UniProt P01024).
T2 construct: Further cleavage events yield C3d (the terminal cleavage product of C3)
Kind of series: Competitive binding ELISA, C3d-CR2. The settings on record: plates coated with CR2. The method, then: (§1) Competitive binding ELISA: 50 molecules selected from virtual screening were tested for competitive binding against C3d and its interactions with endogenous protein CR2 and bacterial protein Ecb (homolog to Efb) from Staphylococcus aureus. ELISA plates were coated with CR2 or Ecb for 1 hour at 37° C. Plates were washed and blocked, then incubated with serial dilutions of C3d, with and without test molecules. Plates were incubated with a mouse monoclonal antibody against C3d, followed by a horseradish peroxidase-labeled anti-mouse IgG antibody. The amount of labeled antibody (and in turn, C3d) bound was detected via reaction with a substrate solution, followed by spectrophotometric measurement.
A general note: ELISA stands for enzyme-linked immunosorbent assay.

The target of the next series is T3, C3d-Ecb interaction (Homo sapiens, UniProt P01024).
T3 construct: Further cleavage events yield C3d (the terminal cleavage product of C3)
Briefly: Competitive binding ELISA, C3d-Ecb. Also noted: species or system Staphylococcus aureus. The conditions noted are these: plates coated with Ecb. The method, then: as §1

Series [3] deals with T1, C3d. Kind of series: Fluorescence of molecules in the presence of C3d. The settings on record: subsaturating concentrations of C3d. The method, then:
The fluorescence properties of topperforming molecules in the presence of C3d were also evaluated. Often, when small molecule fluorophores bind to their targets, fluorescence may be quenched, an undesirable property for potential diagnostic molecules. […] Remarkably, Mol4 underwent drastic fluorescence enhancement in the presence of C3d, with up to 5-fold higher fluorescence at subsaturating concentrations of C3d (FIG. 14).

For series [4] the following is noted: for EtOH; standard fluorophore; cited from earlier work.
Where [5] appears, read: aqueous buffer and six alcohols.

T1 sequence (P01024 1002-1303 limits assumed): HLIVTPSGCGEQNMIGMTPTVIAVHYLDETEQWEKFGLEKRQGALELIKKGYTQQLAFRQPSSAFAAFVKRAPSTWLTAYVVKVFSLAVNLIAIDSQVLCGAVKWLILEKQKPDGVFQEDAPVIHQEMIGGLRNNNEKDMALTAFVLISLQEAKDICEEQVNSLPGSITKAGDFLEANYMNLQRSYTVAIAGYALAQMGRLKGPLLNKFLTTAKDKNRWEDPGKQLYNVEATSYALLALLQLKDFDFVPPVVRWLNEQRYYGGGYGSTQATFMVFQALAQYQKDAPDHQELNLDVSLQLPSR
T3 sequence (P01024 1002-1303 limits assumed): as above
T2 sequence (P01024 1002-1303 limits assumed): as above

The term Kd denotes the concentration at which binding is half-saturated. Read a low Kd as higher affinity. Consider `O=C(Nc1cccc(-c2cc3ccccc3[nH]2)c1)C1CCN(C(=O)C2CC23CCC3)CC1` (stereo not shown) [Mol 4], for which, in series [1], the “Emission Peak” value is recorded as 380 nm, the “Excitation Peak” value was found to be 315 nm and the “Quantum Yield” value is reported as 0.560. The compound further showed a Kd at C3d [2] of 29 ± 8 µM.

For `O=C(Nc1nc2ccccc2[nH]1)c1ccc(CNS(=O)(=O)c2ccc(F)c(F)c2F)cc1` [Mol 11], in series [1], the “Emission Peak” value is 405 nm, the “Excitation Peak” value is given as 310 nm and the “Quantum Yield” value was 0.001. The same compound displayed a Kd at C3d [2] of 45 ± 13 µM.

As for `Cc1c(-c2ccc(F)cc2)[nH]c2ccc(CNC(=O)c3cc(=O)[nH]c(=O)[nH]3)cc12` [Mol 16], in series [1], the “Emission Peak” value was 385 nm, the “Excitation Peak” value was 310 nm and the “Quantum Yield” value is recorded as 0.002. On C3d [2], this compound registered a Kd of 27 ± 5 µM.

For `C[C@@H](Oc1ccc2[nH]c3ccccc3c(=O)c2c1)C(=O)NC(=O)NC12CC3CC(CC(C3)C1)C2` [Mol 17], in series [1], the “Emission Peak” value is reported as 500 nm, the “Excitation Peak” value is 390/405 and the “Quantum Yield” value was found to be 0.984. The affinity at C3d [2], expressed as Kd, was 116 ± 41 µM.

For the compound `CC1Sc2ccc(C(=O)NNC(=O)c3cc(-c4ccco4)nc4ccccc34)cc2NC1=O` (stereo not shown) [Mol 22], in series [1], the “Emission Peak” value was found to be 455 nm, the “Excitation Peak” value came to 355 nm and the “Quantum Yield” value was determined as 0.044. Besides, on C3d [2], binding was put at a Kd of 183 ± 81 µM.

Turning to `Cc1ccc(NC(=O)CSc2nnc3ccc(C(=O)Nc4cccc(F)c4)cn23)c(C)c1` [Mol 35], in series [1], the “Emission Peak” value stood at 460 nm, the “Excitation Peak” value is reported as 275 nm and the “Quantum Yield” value is recorded as 0.001. On C3d-CR2 interaction, the “inhibition of C3d-CR2 interaction” value is given as “inhibit”. Moreover, the affinity on C3d [2], expressed as Kd, was 417 ± 171 µM. Further, the “inhibition of C3d-Ecb interaction” value at C3d-Ecb interaction is “inhibit”.

As to `O=C(Cc1cccc(F)c1)Nc1ccc(N2CCC(NCc3ccc4ncccc4c3)CC2)cc1` [Mol 36], in series [1], the “Emission Peak” value is 425 nm, the “Excitation Peak” value is reported as 320 nm and the “Quantum Yield” value came to 0.017. The compound also showed a Kd on C3d [2] of 132 ± 28 µM.

With `O=C(NC1CCCc2ccccc21)c1ccc(CN2CCN(CC=Cc3ccccc3)CC2)[nH]c1=O` (stereo not shown) [Mol 42], in series [1], the “Emission Peak” value is 390 nm, the “Excitation Peak” value was found to be 335 nm and the “Quantum Yield” value is recorded as 0.011. In addition, the Kd on C3d [2] came to 45 ± 15 µM.

At C3d [2], `O=C(Nc1ccc(C(=O)N2CCN(Cc3nc4sc5c(c4c(=O)[nH]3)CCCC5)CC2)s1)C1CC1` [Mol 50] yielded a dissociation constant Kd of 77 µM. That is a double-digit micromolar value.

On to `O=C(Nc1cccc(-c2cc3ccccc3[nH]2)c1)C1CCN(C(=O)C2CC23CCC3)CC1` (stereo not shown) [Mol B4], for which the “fluorescence enhancement in the presence of C3d” value at C3d [3] was “up to 5 fold”.

On to `Cc1c(-c2ccc(F)cc2)[nH]c2ccc(CNC(=O)c3cc(=O)[nH]c(=O)[nH]3)cc12` [Mol B16], for which the “dependence of Φfl on solvent polarity” value in series [1] (setting [5]) is “does not exhibit any dependence on solvent polarity”. Also, in series [1] (media viscosity about 1,000 cP, protic media), the “emission quantum yield at high media viscosity” value was approximately 0.015. The “emission quantum yield at low media viscosity” value in series [1] (media viscosity about <1 cP, protic media) is “about 0.002”.

Regarding `C[C@@H](Oc1ccc2[nH]c3ccccc3c(=O)c2c1)C(=O)NC(=O)NC12CC3CC(CC(C3)C1)C2` [Mol B17], the “Quantum Yield” value in series [1] (listed as Mol17) was “close to unity”.

Take `CC1Sc2ccc(C(=O)NNC(=O)c3cc(-c4ccco4)nc4ccccc34)cc2NC1=O` (stereo not shown) [Mol B22]: the “inhibition of C3d-CR2 interaction” value at C3d-CR2 interaction is “inhibit”. In addition, the “inhibition of C3d-Ecb interaction” value on C3d-Ecb interaction was “inhibit”.

`O=C(NC1CCCc2ccccc21)c1ccc(CN2CCN(CC=Cc3ccccc3)CC2)[nH]c1=O` (stereo not shown) [Mol B42]: in series [1] (setting [5]), the “dependence of Φfl on media viscosity” value was “does not manifest viscosity dependence” and the “dependence of Φfl on solvent polarity” value is “about an order of magnitude increase in Φfl”.

Regarding `Cc1ccc(NC(=O)Cn2nnc(C(=O)Nc3ccc(C)cc3C)c2N)c(C)c1` [Mol B47], on C3d-CR2 interaction, the “inhibition of C3d-CR2 interaction” value is “only inhibits the C3d-Ecb interaction”. For the same compound, the “inhibition of C3d-Ecb interaction” value at C3d-Ecb interaction is reported as “inhibits”.

As to `c1ccc2cc3ccccc3cc2c1` [anthracene], the “reference quantum yield ΦR” value in series [4] was 0.27.

For `CCN(CC)c1ccc2c(C)cc(=O)oc2c1` [coumarin 1], in series [4], the “reference quantum yield ΦR” value is 0.73.

Regarding `c1ccc2ccccc2c1` [naphthalene], the “reference quantum yield ΦR” value in series [4] is listed as 0.23.
